Patent US20250188417A1, “CARDIOMYOCYTES AND COMPOSITIONS AND METHODS FOR PRODUCING THE SAME” (President and Fellows of Harvard College, priority 2021, published 2025)
Entries after “also recorded” stand apart in the source; their conditions may differ.

Tests used:
BJRiPS-CMs = assay: Western blot and densitometry (MDM2, p53, TNNI3) and cell cycle analysis of BJRiPS-derived cardiomyocytes; format: cell-based, human; settings: pifithrin-α 10 μM with Torin1 200 nM for 7 days
Experimental: FIG. 6A provides a schematic showing proposed mechanism of cardiomyocyte maturation. T3, triiodothyronine. […] FIG. 6C provides representative Western blot of MDM2, p53, TNNI3, and β-tubulin from BJRiPS-derived cardiomyocyte lysates treated with control (DMSO), nutlin-3a Å˜24 hours (10 μmol/L), Torin1 Å˜7 days (200 nmol/L), or Torin1 Å˜7 days (200 nmol/L)+nutlin-3a (10 μmol/L) for 24 hours beginning ≈2 days after onset of beating (nutlin-3a was only administered during the first 24 hours of Torin1 treatment). Cells harvested on final day of treatment, BJRiPS-CMs. […] DMSO indicates dimethylsulfoxide; mTOR, mechanistic target of rapamycin; and TNNT2+ BJRiPS-CMs, troponin T2, cardiac type-positive BJ fibroblast-derived RNA-induced pluripotent stem cell-derived cardiomyocytes.
FIG. 14A provides representative western blot of p53, phospho-53, p21 (CDKN1a), GATA4, NKX2.5, and β-tubulin from Gibco iPS-CM lysates treated with 0 (DMSO), 10, 50, or 200 nM Torin1 for 7 days starting ˜2 days after onset of beating. Cells harvested on final day of treatment. FIG. 14B provides cell cycle analysis showing percentage of TNNT2+ BJRiPS-CMs in G0, G1 or S/G2/M phases after treatment with vehicle (DMSO, dimethylsulfoxide), pifithrin-α (10 μM) for 1 week, Torin1 (200 nM) for 7 days or simultaneous treatment with pifithrin-α (10 μM) and Torin1 (200 nM) for 7 days starting ˜2 days after onset of beating. n=3 per group, *p<0.05, **p<0.01, ***p<0.001, ****p<0.0001 by two-way ANOVA with Tukey's multiple comparisons test. FIG. 14C provides representative western blot of p53, TNNI3, p21, and β-tubulin from BJRiPS-derived cardiomyocyte lysates treated with control (DMSO), Torin1 (200 nM), pifithrin-α (10 PM) or Torin1 (200 nM)+pifithrin-α (10 μM) for 7 days beginning ˜2 days after onset of beating. Cells harvested on final day of treatment.

iPSC-CMs [1] = assay: Flow cytometry of marker expression and live cells in iPSC-CMs treated in 3D culture; format: cell-based, human
Experimental: (§1) The UCSD142i-86-1 cell line was used to generate preliminary data. UCSD142i-86-1 cells were differentiated into cardiomyocytes according to previously published protocols (9) adapted to three-dimensional culture in the laboratory. Two days after onset of beating (around day 9 of differentiation), cardiomyocytes were treated with vehicle (DMSO) or different concentrations of quercetin for different time periods. Cells were harvested for qPCR, western, or flow cytometry at different time points.

iPSC-CMs [2] = assay: qPCR of PPARGC1a mRNA in iPSC-CMs treated in 3D culture; format: cell-based, human; settings: 200 μM for 3 days, FIG. 5
Experimental: as §1

senescent tumor cells = settings: literature reference; cited from earlier work
[3] = treatment of iPSC-CMs in 3D culture

SMILES	effects of Torin1 (cell cycle, TNNI3) (BJRiPS-CMs)	percentage of live cells (iPSC-CMs [1]; 200 μM, 2 or 5 day treatment, 3D culture, flow cytometry, FIG. 4A)	percentage of TNNT2+ iPSC-CMs expressing Kir2.1 (iPSC-CMs [1]; 3D culture, flow cytometry, FIG. 2E / FIG. 3A)	mean fluorescence intensity (MFI) of Kir2.1 (iPSC-CMs [1]; 3D culture, flow cytometry, FIG. 2F / FIG. 3B)	% of p53+ TNNT2+ iPSC-CMs (iPSC-CMs [1]; 3D culture, flow cytometry, FIG. 2G / FIG. 3C)	mean fluorescence intensity of p53 (iPSC-CMs [1]; 3D culture, flow cytometry, FIG. 3D)	iPSC-CM maturation (iPSC-CMs [1]; 3D suspension culture, preliminary data)	percentage of TNNT2+ cells out of live cells (cardiomyocytes) (iPSC-CMs [1]; 2 day treatment at 20 or 200 μM, 3D culture, flow cytometry, FIG. 4B)	expression of Kir2.1 (iPSC-CMs [1]; [3])	expression of p53 (iPSC-CMs [1]; [3])	mRNA expression of PPARGC1a (iPSC-CMs [2])	apoptosis in senescent tumor cells (senescent tumor cells)
Cc1ccc(C(=O)Cn2c3c(sc2=N)CCCC3)cc1 [pifithrin-α]	inhibited	–	–	–	–	–	–	–	–	–	–	–
O=c1c(O)c(-c2ccc(O)c(O)c2)oc2cc(O)cc(O)c12 [quercetin]	–	decreases	increases	increases	increases	increases	can enhance	increases	increases	increases	increases; also recorded: significantly increased	can induce apoptosis
